Measurements reported in publication PMC2095803 (Nucleic Acids Research, 2007).

Columns and labels:
[1] = target: Klenow(exo−) DNA polymerase (Escherichia coli, UniProt P00582, D355A/E357A); experiment: PEP termination assay; assay type: biochemical
[2] = target: T1, Bst DNA polymerase (Geobacillus stearothermophilus, UniProt P52026); experiment: PEP termination assay; assay type: biochemical, Bacillus stearothermophilus
T1 sequence (P52026 289-876 limits assumed): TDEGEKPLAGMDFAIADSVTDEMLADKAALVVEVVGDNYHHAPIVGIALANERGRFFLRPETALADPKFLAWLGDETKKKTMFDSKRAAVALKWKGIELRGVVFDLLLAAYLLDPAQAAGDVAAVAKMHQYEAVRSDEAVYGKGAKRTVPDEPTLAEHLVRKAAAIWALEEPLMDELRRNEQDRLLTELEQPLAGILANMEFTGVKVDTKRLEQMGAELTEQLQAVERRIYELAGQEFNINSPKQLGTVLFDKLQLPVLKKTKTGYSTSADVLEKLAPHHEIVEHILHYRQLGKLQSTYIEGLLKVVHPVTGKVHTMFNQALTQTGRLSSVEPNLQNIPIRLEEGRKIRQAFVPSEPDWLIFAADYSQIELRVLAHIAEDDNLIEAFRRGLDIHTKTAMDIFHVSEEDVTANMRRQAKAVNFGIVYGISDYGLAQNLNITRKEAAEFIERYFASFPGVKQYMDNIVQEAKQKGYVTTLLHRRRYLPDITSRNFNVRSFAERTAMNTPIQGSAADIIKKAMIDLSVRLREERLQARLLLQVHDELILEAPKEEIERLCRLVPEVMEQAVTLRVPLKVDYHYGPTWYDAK

[3] = target: T2, Therminator DNA polymerase (Thermococcus sp., UniProt Q56366, A485L/D141A/E143A); experiment: PEP termination assay; assay type: biochemical, Thermococcus species 9ºN-7
T2 sequence (Q56366 1-775 D141A/E143A/A485L): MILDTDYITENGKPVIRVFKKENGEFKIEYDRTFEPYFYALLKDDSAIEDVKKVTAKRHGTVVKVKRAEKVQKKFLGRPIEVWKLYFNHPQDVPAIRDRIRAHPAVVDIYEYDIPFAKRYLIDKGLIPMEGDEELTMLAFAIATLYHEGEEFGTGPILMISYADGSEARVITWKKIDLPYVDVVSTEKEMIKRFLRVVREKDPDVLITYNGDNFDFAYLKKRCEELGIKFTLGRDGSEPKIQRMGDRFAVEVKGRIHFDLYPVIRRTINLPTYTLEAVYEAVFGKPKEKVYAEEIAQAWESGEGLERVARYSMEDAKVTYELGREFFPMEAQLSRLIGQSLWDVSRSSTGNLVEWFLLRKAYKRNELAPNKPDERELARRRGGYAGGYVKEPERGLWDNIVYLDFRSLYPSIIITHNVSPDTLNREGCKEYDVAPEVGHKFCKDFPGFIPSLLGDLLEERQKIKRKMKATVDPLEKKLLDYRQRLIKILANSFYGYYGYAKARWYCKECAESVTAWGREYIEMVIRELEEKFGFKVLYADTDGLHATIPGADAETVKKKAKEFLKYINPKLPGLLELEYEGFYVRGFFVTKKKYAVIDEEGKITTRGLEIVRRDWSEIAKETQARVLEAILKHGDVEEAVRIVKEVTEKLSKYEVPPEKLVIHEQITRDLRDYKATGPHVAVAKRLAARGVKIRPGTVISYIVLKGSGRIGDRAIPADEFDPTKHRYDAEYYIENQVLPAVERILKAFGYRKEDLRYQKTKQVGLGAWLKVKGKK

[4] = target: T3, DeepVent(exo−) DNA polymerase (Pyrococcus sp. GB-D, UniProt Q51334, D141A/E143A); experiment: PEP termination assay; assay type: biochemical, Pyrococcus species GB-D
T3 sequence (Q51334 with tags, fused parts or gaps D141A/E143A): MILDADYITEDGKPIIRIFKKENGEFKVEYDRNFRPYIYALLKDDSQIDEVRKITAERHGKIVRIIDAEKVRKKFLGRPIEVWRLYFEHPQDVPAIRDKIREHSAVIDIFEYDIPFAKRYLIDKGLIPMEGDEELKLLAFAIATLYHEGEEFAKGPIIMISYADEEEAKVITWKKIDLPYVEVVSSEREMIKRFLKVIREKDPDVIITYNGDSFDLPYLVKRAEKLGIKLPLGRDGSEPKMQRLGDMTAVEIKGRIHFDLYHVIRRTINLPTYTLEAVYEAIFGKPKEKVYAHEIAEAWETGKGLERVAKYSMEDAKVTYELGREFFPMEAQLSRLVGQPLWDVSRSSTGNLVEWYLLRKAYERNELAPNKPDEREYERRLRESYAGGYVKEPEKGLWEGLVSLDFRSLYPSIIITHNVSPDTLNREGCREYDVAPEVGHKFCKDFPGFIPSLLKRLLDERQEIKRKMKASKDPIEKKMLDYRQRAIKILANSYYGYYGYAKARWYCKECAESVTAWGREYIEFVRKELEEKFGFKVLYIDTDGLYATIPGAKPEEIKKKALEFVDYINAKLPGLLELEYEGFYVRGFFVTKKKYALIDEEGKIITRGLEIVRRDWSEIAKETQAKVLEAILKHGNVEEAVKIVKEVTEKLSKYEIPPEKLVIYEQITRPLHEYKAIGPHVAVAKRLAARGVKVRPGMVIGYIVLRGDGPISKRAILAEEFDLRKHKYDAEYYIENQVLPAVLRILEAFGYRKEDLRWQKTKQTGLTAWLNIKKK

[5] = test system: AmpliTaqFS; details: F667Y mutation in AmpliTaqFS; cited from earlier work
[6] = Klenow(exo−), 25× IC50, oligoTemplate-3

| Structure (SMILES) | IC50 [1] | % 1st Base [1, 6] | % 2nd Base [1, 6] | % Primer [1, 6] | IC50 [2] | % 1st Base ([2]; Bst, 25× IC50, oligoTemplate-3) | % 2nd Base ([2]; Bst, 25× IC50, oligoTemplate-3) | % Primer ([2]; Bst, 25× IC50, oligoTemplate-3) | Extension / termination of DNA synthesis on 10-thymidine template ([2]; Bst, at 25× its IC50 value) | IC50 [3] | IC50 [4] | Ratio ddATP over dATP [5] |
| --- | --- | --- | --- | --- | --- | --- | --- | --- | --- | --- | --- | --- |
| O=[N+]([O-])c1ccccc1CNc1ncnc2c1ncn2[C@H]1C[C@H](O)[C@@H](COP(=O)(O)OP(=O)(O)OP(=O)(O)O)O1 [Compound IIIc, N^6-(2-Nitrobenzyl)-2’-deoxyadenosine-5’-triphosphate] | 4.3 nM | 76.1 ± 1.8% | 6.2 ± 0.5% | 17.7 ± 2.2% | 10 nM | 99.1 ± 0.3% | <0.1% | 0.9 ± 0.3% | efficiently incorporated and terminated Bst DNA synthesis at the first-base position | 1.8 nM | 11 nM |  |
| Nc1ncnc2c1ncn2[C@H]1CC[C@@H](COP(=O)(O)OP(=O)(O)OP(=O)(O)O)O1 [ddATP, 2′,3′-dideoxyadenosine triphosphate, reference compound] |  |  |  |  |  |  |  |  |  |  |  | 0.59 |
